In patent publication US20020044973A1, “MICROPARTICLES AND THEIR USE IN CANCER TREATMENT” (priority 1997, published 2002):
Converted amounts (≈) assume the structure as drawn.

Tests used:
[1] = tested on: C170HM2; assay: Example 5: liver tumour weight in tumour-bearing mice, loaded HSAMs vs free doxorubicin; format: in vivo; conditions: 0.24 mg/kg loaded HSAMs or 0.25 mg/kg free doxorubicin; dosing at day 27, termination at day 41; 12 mice per group
Protocol: 0.24 mg/kg doxorubicin-loaded HSAMs (drug loading approx. 1% w/w) were administered to a group of tumour-bearing mice (C170HM2). A further group received HSAMs, at a protein concentration of 100 mg/ml, as a control. A third group received 0.25 mg/kg free doxorubicin. There were 12 mice per group. Dosing was at day 27, termination at day 41.
For the control, the mean liver tumour weight was c. 1.3 g. Following administration of free doxorubicin, the mean weight was c. 0.3 g.

[2] = tested on: MCF7/Dox cell line; assay: Cytotoxicity in doxorubicin-resistant P-glycoprotein expressing daughter cell line (cell counting, Coulter Counter); format: cell-based; conditions: Homo sapiens, 24 hours incubation, further 72 hours before counting, microspheres expressed as μg doxorubicin per ml
Protocol: More specifically, the experiment compared the cytotoxicity of a novel preparation of doxorubicin covalently-linked to a human serum albumin microsphere carrier between 2 and 3 μm in diameter on a doxorubicin-sensitive human breast cancer cell line and its doxorubicin-resistant P-glycoprotein expressing daughter cell line. […] The human MCF7 cell line and its doxorubicin-resistant daughter cell line, MCF7/Dox were used.
The medium was then changed, cells were incubated for a further 72 hours before harvesting and counting with a Coulter Counter.

SMILES: COc1cccc2c1C(=O)c1c(O)c3c(c(O)c1C2=O)C[C@@](O)(C(=O)CO)C[C@@H]3O[C@H]1C[C@H](N)[C@H](O)[C@H](C)O1 [doxorubicin]
- mean liver tumour weight [1]: ~0.3 g
- IC50 [2]: 0.387 µg/mL (≈ 0.712 µM)
